Like-named read-outs stand apart in the source and are kept apart here. Ends that are not written are not given here.

Data set [1] deals with human platelets. It counts as cell-based. The procedure:
The cytoplasmic free Ca^2+ concentration ([Ca^2+ ]i) was measured using the fluorescent Ca^2 + indicator fura-2 (Molecular Probes, Inc., Eugene, Oreg.). Gel filtered platelets in Hepes-Tyrode's buffer were loaded with fura-2 by incubation at 37° C. with 1 μM fura-2/acetoxymethyl ester for 45 min according to the method of Rasmussen et al., J. Biol. Chem. 268, 14322 (1993). The labeled platelets were then re-gel filtered to remove any excess probe. Aliquots of the labeled platelet suspension were transferred into a quartz cuvette with a magnetic stirrer, which was then placed in a thermostatically controlled chamber at 37° C. in a fluorescence spectrophotometer (Dual Wave Length Shimazdu SP5000 Spectrofluorometer, Shimazdu USA, Pittsburgh, Pa.). Reagents were directly added to the cuvette. The excitation wave lengths varied between 340 and 380 nm. The fluorescence was measured by recording emitted light at 510 nm as reported by Fisher et al, Mol. Pharm. 35, 195 (1989). The minimum emission was determined on a 20 mM digitonin, 10 mM EGTA solubilized platelet sample; maximum emission was determined on the same sample with 10 mM Ca^2+ added. The intraplatelet free Ca^2+ concentration was calculated by the method of Grykiewicz et al., J. Biol. Chem. 260, 3440 (1985). The ratio of the fluorescence readings was calculated as R=340/380 nm and processed according to the equation [Ca^2+ ]i =KD ((R-Rmin)/Rmax -R))(Sf2 /Sb2) to determine the intraplatelet free Ca^2+ concentration. The KD for fura-2 was assumed to be 224 nM. Rmax and Rmin are the maximum and minimum fluorescence ratios measured at the end of the experiment, respectively; Sf2 and Sb2 are the fluorescence values at 380 nm in the absence and presence of saturating [Ca^2+ ], respectively.

In data set [2] the test system is platelets. It counts as cell-based, human. The settings on record: for inhibition of aggregation / inhibition of secretion: peptide 1 mM. On the procedure: Fresh whole blood was collected and mixed with 0.013 M sodium citrate and platelet-rich plasma was prepared according to the method of Meloni et al., J. Biol. Chem. 266, 6786, 1991. Washed platelets were prepared by gel filtration over Sepharose 2B columns in Hepes-Tyrode's buffer (0.137 M NaCl, 3 mM KCl, 0.4 mM Na H2 PO4, 12 mM NaHCO3, 1 mM MgCl2, 14.7 mM Hepes containing 20 mM glucose and 0.2% bovine serum albumin, pH 7.35). Platelets for aggregation and secretion studies were incubated according to the method of Schmaier et al., Blood 56, 1013, 1980 with 5-[^14 C]hydroxytryptamine for 30 min at 37° C. The washed platelets (2×10^8 /ml, final concentration radiolabeled with 5-[^14 C]hydroxytryptamine) were added to a cuvette of an aggregometer (Chronolog Corp., Havertown, Pa.), standardized using the protocol of Meloni et al., supra. After the addition of ZnCl2, final concentration 50 μM, purified HK (1 μM) or various concentrations of the peptides (0.1 to 3 mM) or buffer alone was added to the cuvette. Once the baseline stabilized, α-thrombin [0.125 U/ml (1 nM) final concentration] was then added to initiate platelet activation. Stirred platelets were allowed to incubate with o-thrombin and additions for 1 min. In other experiments, platelets were stimulated with TRAP (0.625 to 2.5 μM), ADP (1-5 μM)(Sigma), collagen (1.25 μg/ml) (Horm, Munich, Germany), or U-46619 (1 μM)(Calbiochem Behring, San Diego, Calif.). Additional experiments were performed with washed platelets stimulated with γ-thrombin (1 nM) in the presence of human fibrinogen (100 mg/dl). Both γ-thrombin and human fibrinogen were purchased from Enzyme Research Laboratories, South Bend, Ind. At the conclusion of the incubation, the entire platelet sample was centrifuged at 10,900 xg (Model E, Beckman Instruments, Palo Alto, Calif.) over a 0.135 mM formaldehyde, 5 mM EDTA solution (1 part of formaldehyde-EDTA to 4 parts of platelet suspension) and stored on ice until an aliquot of the supernatant was assayed for 5-[^14 C]hydroxytryptamine secretion. Percent secretion was determined by the ratio of the loss of 5-[^14 C]hydroxytryptamine in the supernatant of the agonist-treated specimen to the loss of 5-[^14 C]hydroxytryptamine in the supernatant of the platelet lysate after the value of the control supernatant (i.e., the level of 5-[^14 C]hydroxytryptamine in a unstimulated sample) was subtracted from both.

In data set [3] the target is α-thrombin (Homo sapiens, UniProt P00734). The data set is described as follows: α-thrombin cleavage of thrombin receptor peptide NAT12 (HPLC). It counts as biochemical. Conditions: peptide 1 mM, 8 nM α-thrombin. The procedure: A further study was performed to determine whether BK analogs prevent α-thrombin from cleaving the thrombin receptor reported by Vu et al., Cell 64, 1057 (1991). A peptide, NAT12 (SEQ ID NO:2), which spans amino acids […] of the α-thrombin cleavage site on the thrombin receptor, was used to determine whether the BK analogs described herein blocked α-thrombin cleavage of the cloned receptor.
The cleavage study was performed according to the method of Molino et al., J. Biol. Chem. 270,11168(1995),inwhichNAT12(SEQ ID NO:2) was dissolved in a solution of 0.01 M NaH2 PO4 and 0.15 M NaCl, pH 7.4. […] Following incubation, each mixture was separated by applying the mixture to a Vyadec C-18 HPLC column in 0.1% trifluoroacetic acid and eluting the mixture with a gradient from 0% to 100% of 80% MeCN and 0.1% trifluoroacetic acid. The size of the separated products were confirmed by mass spectrometry.

Data set [4] in a line: rabbit clearance study (plasma antigen by ELISA). It counts as in vivo, New Zealand white rabbits. On the procedure:
(§1) Clearance studies have been performed in New Zealand white rabbits with BK analog SEQ ID NO:19. White rabbits weighing between 2.0 and 2.5 kg were premedicated according to the method of Michelson et al., J. Mol. Cell Cardiol. 20, 547 (1988) with 10 mg/kg 1 M xylazine and 10 mg/kg 1 M ketamine. After tracheostomy, intubation, and positive pressure ventilation done with room air (Harvard instruments), stage III surgical anesthesia was maintained with 20 mg/ml of intravenous pentobarbital. A carotid artery and a jugular vein were then exposed. A catheter was inserted into the exposed carotid artery for withdrawal of blood samples and monitoring the animal's blood pressure (Gould, Inc., Cardiovascular Products, Oxnard, Calif.). In a similar manner, a catheter was inserted into the exposed jugular vein for administering the anesthetic and BK analog SEQ ID NO:19.
(§2) For the clearance study, a single bolus of BK analog SEQ ID NO:19 was injected. The amount of BK analog SEQ ID NO:19 injected was calculated from the weight of the animal such that the blood volume was 1 mM with peptide. For example: for a 2.5 kg rabbit, 7% of its weight gives an estimated blood volume of 175 ml. Accordingly, 89 mg of BK analog was injected to make the 175 ml plasma sample 1 mM. Depending upon the size of the animal, 75 to 90 mg peptide was injected. Blood samples were collected at 2, 4, 6, 8, 10, 20, 30, 40, 60, 90, and 120 minute intervals after infusion into a 0.013 M sodium citrate anticoagulant solution. Plasma was prepared from each of the blood samples collected over time by centrifugation of the blood samples at 10,00 xg for two minutes. Aliquots of the plasmas were assayed for the presence of the BK analog SEQ ID NO:19 antigen by the ELISA technique using a MARKIT-M [1-5] BK assay from Dainippon Pharmaceutical Co., Ltd., Osaka, Japan.

Data set [5] can be described thus: observations in rabbits after bolus injection. It counts as in vivo, New Zealand white rabbits. The settings on record: single iv bolus. On the procedure: as §1, §2
Data set [6] concerns washed platelets. As to the kind of experiment: 125I-α-thrombin binding to platelets. More on the design: species or system human. Conditions: peptide 1 mM. The procedure:
Gel filtered platelets were placed into polypropylene tubes and diluted with Hepes-Tyrode's buffer, containing 2 mM CaCl2 and 50 μM ZnCl2 and additions, to a final concentration of 2×10^8 platelets/ml. The reaction was started by the addition of 1 nM ^125 I-α-thrombin, which was prepared by using the iodogen technique as reported by Meloni et al., J. Biol. Chem. 266, 6786 (1991). Incubations were performed at 37° C. for specified times with various additions. After incubation, 50 μl aliquots were removed in triplicate for each experimental point and placed in polypropylene microcentrifuge tubes with an extended tip containing 200 μl of an oil mixture which consisted of 1 part Apiezon A oil to 9 parts of n-butylphthalate (Gustafson et al., J. Clin. Invest. 78, 810 (1986)), and centrifuged at room temperature for 2 min at 10,900× g in a microcentrifuge. (Model E, Beckman Instruments, Palo Alto, Calif.) The supernatant was removed and the tips amputated for placement in the gamma counter. The radioactivity present in the cell pellet was determined with an LKB Rack Gamma Counter (LKB Instruments, Inc., Gaithersburg, Md.). Nonspecific binding was measured in the presence of a 100-fold molar excess of α-thrombin.

[7] abbreviates: aggregation and secretion not distinguished, read-out: IC50, inhibition of α-thrombin-induced platelet activation.
The mark [8] stands for this setting: washed platelets, α-thrombin 1 nM, read-out: IC50 AGGREGATION (inhibition of α-thrombin-induced platelet aggregation).
Setting [9] is: washed platelets, α-thrombin 1 nM, read-out: IC50 SECRETION (inhibition of α-thrombin-induced platelet secretion).

In general, IC50 refers to the concentration that inhibits the measured activity by half. Take `CC[C@H](C)[C@H](NC(=O)[C@H](CCCNC(=N)N)NC(=O)[C@H](CO)NC(=O)[C@H](CO)NC(=O)[C@H](CCCNC(=N)N)NC(=O)[C@H](Cc1ccccc1)NC(=O)[C@@H]1CCCN1C(=O)[C@H](CO)NC(=O)[C@H](Cc1ccccc1)NC(=O)CNC(=O)[C@@H]1CCCN1C(=O)[C@@H]1CCCN1C(=O)[C@H](CCCNC(=N)N)NC(=O)[C@H](CCCCN)NC(=O)[C@@H](N)CCSC)C(=O)NCC(=O)O` [SEQ ID NO:14]: in data set [1], the midpoint of inhibition, the IC50, lay at 300 µM.
Take Arg-Pro-Pro-Gly (RPPG) [SEQ ID NO:20]: in data set [2], the inhibition of aggregation is reported as 95% and the inhibition of secretion was 25%.
Turning to “RPPGF [SEQ ID NO:19, Arg-Pro-Pro-Gly-Phe]”, in data set [3], the “cleavage product peak 2, share of non-treated NAT12 peak area” value worked out at 26% and the “cleavage product peak 3, share of non-treated NAT12 peak area” value was 31%. Moreover, the “reduction of NAT12 peak 1 area after α-thrombin” value in data set [3] (one hour 37° C.) was determined as 57%. The “effect of ligating renal arteries on half-life” value in data set [4] (Rabbit 2, renal arteries ligated) was “did not lengthen the half-life”. Besides, the “half-life of antigen clearance in plasma” value in data set [4] (single iv bolus) was determined as 6.6 min. Moreover, the “peak plasma concentration after infusion” value in data set [4] (single iv bolus, two minutes after infusion) stood at 0.120 mM. This molecule also had a peak plasma concentration after infusion in data set [4] (single iv bolus, two of three rabbits, ELISA) of 60 µg/mL. Further, in data set [5], the “bleeding at the surgical sites of cutdowns and intubations” value is “no abnormal bleeding”; the blood pressure entry is recorded as “remained stable”; the platelet count result is “remained stable”; the pulse result is on record as “remained stable”. In data set [5], the “unfavorable effects following the bolus injection” value is reported as “No unfavorable effects were observed”.
Regarding “SEQ ID NO:5: scrambled peptide having the amino acids of SEQ ID NO:19 (FPRPG) [reference compound]”, in data set [2], the inhibition of aggregation result is given as “did not inhibit” and the inhibition of secretion entry is recorded as “did not inhibit”.
For the molecule “SEQ ID NO:6: scrambled peptide having the same amino acid count as SEQ ID NO: 14 (FSGPKRSPIMGRPSFR) [reference compound]”, in data set [2], the inhibition of aggregation was 26% and the inhibition of secretion came to 8%.
As for “SEQ ID NO:7: BK analog of the mid or carboxy terminal regions of BK (FSPFRSS)”, the figures for the IC50 in data set [2] (setting [7]), in data set [2] (setting [8]) and in data set [2] (setting [9]) were at least 2000 µM, 2000 µM and above 2000 µM, respectively.
“SEQ ID NO:8: BK analog that encompasses all or a portion of the native BK sequence (GFSPFRSSRIG)”: the IC50 in data set [2] (setting [8]) is 850 µM; in data set [2] (setting [9]), above 2000 µM. For the same molecule, in data set [6], the “inhibition of 125I-α-thrombin binding to platelets” value is reported as “did not block”.
With “SEQ ID NO:9: scrambled peptide having the amino acids of SEQ ID NO:19 (GPFPR) [reference compound]”, in data set [2], the inhibition of aggregation entry is “did not inhibit” and the inhibition of secretion result is “did not inhibit”.
Regarding “SEQ ID NO:16: BK analog of the mid or carboxy terminal regions of BK (PPGFSP)”, the values for the IC50 in data set [2] (setting [7]), in data set [2] (setting [8]) and in data set [2] (setting [9]) were at least 2000 µM, above 3000 µM and above 2000 µM, respectively.

Values taken from US6143719A, “Bradykinin analogs as selective thrombin inhibitors” (The Regents of the University of Michigan, priority 1996, dated 2000).
